This is an account of results in patent publication US20190092720A1, “FUNCTIONALIZED BENZAMIDE DERIVATIVES AS ANTIVIRAL AGENTS AGAINST HBV INFECTION” (BARUCH S. BLUMBERG INSTITUTE, priority 2012, published 2019).

Data set [1] concerns HBV replication in AML12HBV10 cells. As to the kind of experiment: Antiviral efficacy in AML12HBV10 cells (HBV DNA dot-blot hybridization). It is filed as cell-based, Hepatitis B virus (HBV). To be noted: Hepatitis B virus, AML12HBV10, 48 h, read-out: AML12HBV10 EC50, concentration that reduces the amount of HBV DNA by 50%, serial dilution 50 μM to 0.39 μM. The protocol: The HBV replication inhibitors of the present invention are capable of treating and preventing diseases associated with HBV infection.
The antiviral efficacy of the compounds of the disclosure, as presented in Table 1, were determined in AML12HBV10 cells. AML12HBV10 is an immortalized murine hepatocyte (AML12)-derived stable cell line that supports robust HBV replication in a tetracycline inducible manner (Xu et al.). The cells were seeded into 96 well plates at a density of 2×10^4 cells per well and cultured in DMEM/F12 media with 10% fetal bovine serum in the absence of tetracycline to allow pgRNA transcription and HBV DNA replication. One day after seeding, cells were left untreated or treated with a serial dilution of testing compounds, ranging from 50 μM to 0.39 μM, for 48 hours. Cells were then lysed by adding into each well of 100 μl lysis buffer containing 10 mM Tris-HCl (pH 7.6), 1 mM EDTA, 100 mM NaCl and 1% NP-40 and incubated at 37° C. for 30 minutes. Half amount (50 μl) of cell lysate from each well was combined with equal volume of denaturing solution containing 0.5N NaOH and 1.5M NaCl. After 5 minute incubation, 100 µl of neutralization solution (1M Tris-HCl, pH 7.4, 1.5M NaCl) was added into each well. The denatured cell lysates (totally 200 μl) were applied onto Nylon membrane using 96-well dot-blot manifold (Biorad). HBV DNA in the cell lysates were determined by dot-blot hybridization with alpha-^32P-UTP-labelled riboprobe specific for HBV minus strand DNA. The antiviral efficacy of a compound of the disclosure was expressed as the concentration that reduces the amount of HBV DNA by 50% (EC50).

Data set [2] can be described thus: Cytotoxicity in AML12HBV10 cells (MTT assay). The settings on record: mouse, concentration that reduces viability by 50%, serial dilution 50 μM to 0.39 μM. It is filed as cell-based, murine. The protocol: Determination of cytotoxicity of compounds of the disclosure in AML12HBV10 cells: To determine the cytotoxicity of the compounds, AML12HBV10 cells were seeded into 96-well plates at a density of 2×10^4 cells per well and cultured in DMEM/F12 media with 10% fetal bovine serum in the absence of tetracycline to allow pgRNA transcription and HBV DNA replication. One day after seeding, cells were left untreated or treated with a serial dilution of testing compounds, ranging from 50 μM to 0.39 μM, for 48 hours. The cell viability was measured by a MTT assay, following procedure provided by the manufacturer (Promega). The cytotoxicity of a compound was expressed as the concentration of compound that reduces the viability of the cells by 50% (CC50).

For data set [3], the system named is HBV replication in HepDES19 cells. The experiment in a line: Antiviral activity in HepDES19 cells (core-associated HBV DNA, Southern blot). It is filed as cell-based, Hepatitis B virus (HBV). To be noted: concentration that reduces core-associated HBV DNA by 50%, 6 days, serial dilution 10 μM to 0.018 μM. The text has this:
Determination of antiviral activity of compounds of the disclosure, as presented in Table 1, in human hepatoma-derived cell lines: To further confirm the antiviral activity of the compounds of the disclosure against HBV in human hepatocyte-derived cells, HepDES19 cells, a human hepatoma cell line supporting HBV replication in a tetracycline inducible manner (Guo et al., 2007), seeded into 12-well plates at a density of 5×10^5 cells per well and cultured in DMEM/F12 media with 10% fetal bovine serum and 1 μg/ml tetracycline. Two days after seeding, the cells were mock-treated or treated with a serial dilution of compounds of the disclosure, ranging from 10 μM to 0.018 μM, for 6 days in the absence of tetracycline. Upon the completion of treatment, cells were lysed by adding into each well of the 12-well plates 0.5 ml of lysis buffer containing 10 mM Tris-HCl (pH 8.0), 1 mM EDTA, 1% NP40 and 2% sucrose and incubating at 37° C. for 10 minutes. Cell debris and nuclei were removed by centrifugation and the supernatant was mixed with 130 μl of 35% polyethylene glycol (PEG) 8000 containing 1.5 M NaCl. After 1 hour incubation in ice, viral nucleocapsids were pelleted by centrifugation at 6,000×g for 5 min at 4° C., followed by 1 hour digestion at 37° C. in 400 μl of digestion buffer containing 0.5 mg/ml pronase (Calbiochem), 0.5% SDS, 150 mM NaCl, 25 mM Tris-HCl (pH 8.0) and 10 mM EDTA. The digestion mixture was extracted twice with phenol and DNA was precipitated with ethanol, dissolved in TE buffer (10 mM Tris-HCl, pH 8.0; 0.1 mM EDTA). One half of the DNA sample from each well was resolved by electrophoresis into a 1.5% agarose gel. The gel was then subjected to denaturation in a solution containing 0.5 M NaOH and 1.5 M NaCl, followed by neutralization in a buffer containing 1 M Tris-HCl (pH7.4) and 1.5 M NaCl. DNA was then blotted onto Hybond-XL membrane (GE Health care) in 20×SSC buffer. The amounts of cytoplasmic HBV core-associated HBV DNA were determined by Southern blot hybridization and the antiviral efficacy of a compound was expressed as its concentration that reduce the amount of HBV DNA by 50% (EC50) or 90% (EC90).

[4] abbreviates: Hepatitis B virus, HepDES19, 144 h.

Regarding `O=C(Nc1ccc(O)cc1)c1scc2c1CCCC2` [Entry 1], in data set [1], the EC50 is 36 µM. In addition, the CC50 at 48 h in data set [2] is > 50 µM.
In the same order, the values of `O=C(Nc1ccccc1)c1scc2c1CCCC2` [Entry 2] are 9 µM and > 50 µM.
As to `O=C(Nc1ccc(F)cc1)c1scc2c1CCCC2` [Entry 3], the EC50 in data set [1] turned out to be 25 µM. Also, the CC50 at 48 h in data set [2] is > 50 µM.
The matching figures for `COc1cccc(NC(=O)c2scc3c2CCCC3)c1` [Entry 4]: 8 µM and > 50 µM.
In the same order, the values of `O=C(Nc1cccc(C(F)(F)F)c1)c1scc2c1OCCO2` [Entry 5] are 8.5 µM and > 50 µM.
Regarding `O=C(Nc1ccccc1)c1scc2c1OCCO2` [Entry 7], the EC50 in data set [1] and in data set [3] was 3 µM in each case. The CC50 at 48 h in data set [2] is > 50 µM.
For the compound `O=C(Nc1cccc(Cl)c1)c1ccccc1` [Entry 8], in data set [1], the EC50 was found to be 46.2 µM. In data set [2], the CC50 at 48 h was > 50 µM.
In the same order, the values of `O=C(Nc1cccc(I)c1)c1scc2c1OCCO2` [Entry 9] are 2.8 µM and > 50 µM.
In the same order, the values of `O=C(Nc1cccc(Cl)c1)c1csc2ccccc12` [Entry 11] are 30 µM and > 50 µM.
In the same order, the values of `O=C(Nc1cccc(Cl)c1)c1cccc(F)c1F` [Entry 12] are 30 µM and > 50 µM.
Consider `O=C(Nc1cccc(Cl)c1)c1ccccc1Cl` [Entry 13], for which, in data set [1], the EC50 was found to be 12.3 µM. Besides, in data set [2], the cytotoxic concentration (CC50) at 48 h was > 50 µM.
On to `O=C(Nc1cccc(Cl)c1)c1cccc(Cl)c1Cl` [Entry 14], for which the figures for the EC50 in data set [1] and in data set [3] (setting [4]) were 8.3 µM and 22.2 µM, respectively. In addition, the CC50 at 48 h in data set [2] was > 50 µM.
Turning to `O=C(Nc1cccc(Cl)c1)c1c(F)cccc1F` [Entry 15], the EC50 in data set [1] stood at 31.2 µM. In addition, the CC50 at 48 h in data set [2] is > 50 µM.
With `O=C(Nc1cccc(Cl)c1)c1c(Cl)cccc1Cl` [Entry 16], the EC50 in data set [1] was 35.3 µM. In addition, in data set [2], the CC50 at 48 h is > 50 µM.
For `O=C(Nc1cccc(Cl)c1)c1ccccc1F` [Entry 17], the EC50 in data set [1] amounted to 16.5 µM. The CC50 at 48 h in data set [2] is > 50 µM.
For `O=C(Nc1cccc(Cl)c1)c1cccc2ccccc12` [Entry 18], the EC50 in data set [1] came out at 6.52 µM; in data set [3] (setting [4]), 4.2 µM. Moreover, the CC50 at 48 h in data set [2] was > 50 µM.
Turning to `O=C(Nc1cc(Cl)cc(Cl)c1)c1cccc2c1OCCO2` [Entry 20], in data set [1], the EC50 turned out to be 4.85 µM. The CC50 at 48 h in data set [2] is > 50 µM.
Consider `O=C(Nc1ccc(F)c(F)c1)c1ccc2ccccc2c1` [Entry 21], for which the EC50 in data set [1] was 23.9 µM. Besides, in data set [2], the CC50 at 48 h is > 50 µM.
The matching figures for `O=C(Nc1ccc(F)c(F)c1)c1scc2c1OCCO2` [Entry 22]: < 0.4 µM and > 50 µM.
For the compound `O=C(Nc1cccc(I)c1)c1ccc2ccccc2c1` [Entry 23], the EC50 in data set [1] was 19.4 µM. In addition, the CC50 at 48 h in data set [2] was > 50 µM.
As to `O=C(Nc1cccc(Cl)c1)c1cccc2c1OCO2` [Entry 24], in data set [1], the EC50 came to 1.14 µM. The CC50 at 48 h in data set [2] is > 10 µM.
As for `O=C(Nc1cccc(F)c1)c1cccc2c1OCCO2` [Entry 25], in data set [1], the EC50 was determined as 0.41 µM. The CC50 at 48 h in data set [2] is > 10 µM.
Regarding `O=C(Nc1ccc(F)cc1)c1cccc2c1OCCO2` [Entry 26], the EC50 in data set [1] was found to be 0.4 µM. Moreover, the CC50 at 48 h in data set [2] was > 10 µM.
The matching figures for `O=C(Nc1cccc(OC(F)(F)F)c1)c1cccc2c1OCCO2` [Entry 27]: 11.2 µM and > 10 µM.
In the same order, the values of `O=C(Nc1ccccc1F)c1cccc2c1OCCO2` [Entry 28] are 10.8 µM and > 10 µM.
`O=C(Nc1ccc(Br)cc1F)c1cccc2c1OCCO2` [Entry 29]: in data set [1], the EC50 came out at 10.6 µM. Besides, in data set [2], the CC50 at 48 h was > 10 µM.
The matching figures for `O=C(Nc1cc(F)ccc1F)c1cccc2c1OCCO2` [Entry 30]: 14.9 µM and > 10 µM.
In the same order, the values of `O=C(Nc1ccc(F)c(F)c1)c1cccc2c1OCCO2` [Entry 31] are 0.17 µM and > 10 µM.
For the compound `O=C(Nc1ccc(F)cc1F)c1cccc2c1OCCO2` [Entry 32], the EC50 in data set [1] came out at 8.53 µM. The CC50 at 48 h in data set [2] was > 10 µM.
In the same order, the values of `O=C(Nc1ccc(F)c(F)c1)c1cccc(Cl)c1Cl` [Entry 33] are 1.86 µM and > 10 µM.
`O=C(Nc1ccc(F)cc1F)c1cccc(Cl)c1Cl` [Entry 34]: the EC50 in data set [1] was 13.2 µM. In addition, the CC50 at 48 h in data set [2] is > 10 µM.
The matching figures for `O=C(Nc1ccc(Cl)c(Cl)c1)c1cccc2c1OCCO2` [Entry 35]: 0.49 µM and > 10 µM.
Consider `O=C(Nc1ccc(F)cc1Cl)c1cccc2c1OCCO2` [Entry 36], for which the EC50 in data set [1] is 7.41 µM. Also, the CC50 at 48 h in data set [2] is > 10 µM.
In the same order, the values of `O=C(Nc1ccc(Cl)cc1F)c1cccc2c1OCCO2` [Entry 37] are 8.88 µM and > 10 µM.
In the same order, the values of `O=C(Nc1ccc(F)c(Cl)c1)c1cccc2c1OCCO2` [Entry 38] are 0.05 µM and > 10 µM.
On to `O=C(Nc1ccc(F)c(F)c1F)c1cccc2c1OCCO2` [Entry 39], for which the EC50 in data set [1] is 3 µM. Besides, the CC50 at 48 h in data set [2] was > 10 µM.
`O=C(Nc1c(F)cc(F)cc1F)c1cccc2c1OCCO2` [Entry 40]: the EC50 in data set [1] was 10.5 µM. Also, the CC50 at 48 h in data set [2] was > 10 µM.
For the compound `O=C(Nc1ccc(Cl)c(F)c1)c1cccc2c1OCCO2` [Entry 41], the EC50 in data set [1] is 1.48 µM. The half-maximal cytotoxic concentration (CC50) at 48 h in data set [2] is > 25 µM.
The matching figures for `O=C(Nc1cccc(Cl)c1)c1cccc2c1OCCCO2` [Entry 42]: 2.75 µM and > 25 µM.
The matching figures for `O=C(Nc1ccc(F)c(F)c1)c1cccc2c1OCCCO2` [Entry 43]: 1.93 µM and > 25 µM.
For `O=C(Nc1ccc(F)c(Cl)c1)c1cccc2c1OCCCO2` [Entry 44], the EC50 in data set [1] came to 1.1 µM. Also, in data set [2], the CC50 at 48 h is > 25 µM.
On to `O=C(Nc1ccc(Cl)c(F)c1)c1cccc2c1CCCC2` [Entry 45], for which the EC50 in data set [1] was found to be 1.66 µM. Further, the cytotoxic concentration (CC50) at 48 h in data set [2] was > 25 µM.
In the same order, the values of `O=C(Nc1ccc(F)c(F)c1)c1cccc2c1CCCC2` [Entry 46] are 1.48 µM and > 25 µM.
